Measurements from patent US20120309750A1, “5-MEMBERED HETEROCYCLE DERIVATIVES AND MANUFACTURING PROCESS THEREOF” (ILDONG PHARM CO., LTD., priority 2010, published 2012).

Assays:
yeast HSP90 = yeast HSP90 (Saccharomyces cerevisiae, UniProt P02829); test: Hsp90 ATPase assay (malachite green); format: biochemical
Protocol: (§1) For present invention, the ATPase activity of yeast HSP90 was measured using malachite green assay. Formula I compounds for primary antitumoral activity were treated in human colorectal cancer cells (HCT116) showing increased expression levels of HSP90 client protein and cotoxicity IC50 values was measured as a result.

[1] = test system: human colorectal cancer cells (HCT116); test: Growth inhibition assay (cytotoxicity) in HCT116; format: cell-based; conditions: HCT-116
Protocol: as §1

yeast HSP90, sequence (P02829 whole entry): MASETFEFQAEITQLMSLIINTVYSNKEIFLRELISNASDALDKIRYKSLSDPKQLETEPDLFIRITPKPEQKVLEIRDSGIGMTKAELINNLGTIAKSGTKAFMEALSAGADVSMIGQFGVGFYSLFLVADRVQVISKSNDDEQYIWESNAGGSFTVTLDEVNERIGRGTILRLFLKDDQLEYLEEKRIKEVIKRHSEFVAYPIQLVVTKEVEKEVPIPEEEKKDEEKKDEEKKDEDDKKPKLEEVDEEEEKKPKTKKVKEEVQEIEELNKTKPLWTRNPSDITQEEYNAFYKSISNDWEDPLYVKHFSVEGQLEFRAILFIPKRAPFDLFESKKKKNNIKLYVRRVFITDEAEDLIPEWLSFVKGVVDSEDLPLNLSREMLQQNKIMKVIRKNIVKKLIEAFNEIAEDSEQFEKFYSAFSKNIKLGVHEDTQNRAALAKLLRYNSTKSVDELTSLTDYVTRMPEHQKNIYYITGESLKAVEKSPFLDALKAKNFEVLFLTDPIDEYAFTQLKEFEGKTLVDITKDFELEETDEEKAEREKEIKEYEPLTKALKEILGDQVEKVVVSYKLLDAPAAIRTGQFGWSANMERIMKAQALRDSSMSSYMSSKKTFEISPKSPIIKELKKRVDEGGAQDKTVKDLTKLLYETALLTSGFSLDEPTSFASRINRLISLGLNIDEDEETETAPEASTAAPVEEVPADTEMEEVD

Question: For `CCNC(=O)c1noc(-c2cc(C(C)C)c(O)cc2O)c1-c1cc(C(=O)O)no1` [Compound I-26, 5-(2,4-Dihydroxy-5-isopropylphenyl)-3-(ethylcarbamoyl)-4,5′-biisoxazole-3′-carboxylic acid], which IC50 (yeast HSP90) is on record?
Answer: > 1000 nM

Question: And the IC50 [1]?
Answer: > 1000 nM

Question: How did the IC50 (yeast HSP90) turn out when `CCNCc1cc(-c2c(C(=O)NCC)noc2-c2cc(C(C)C)c(O)cc2O)on1` [Compound I-27, 5-(2,4-Dihydroxy-5-isopropylphenyl)-N-ethyl-3′-((ethylamino)methyl)-4,5′-biisoxazole-3-carboxamide] was run?
Answer: < 500 nM

Question: What about the IC50 [1] of the same compound?
Answer: < 500 nM

Question: Which IC50 (yeast HSP90) does the source give for `CCNC(=O)c1noc(-c2cc(C(C)C)c(O)cc2O)c1-c1cc(CF)no1` [Compound I-28, 5-(2,4-Dihydroxy-5-isopropylphenyl)-N-ethyl-3′-(fluoromethyl)-4,5′-biisoxazole-3-carboxamide] here?
Answer: < 500 nM

Question: And the IC50 [1]?
Answer: < 500 nM

Question: Which results are given for `CCNC(=O)c1cc(-c2c(C(=O)NCC)n[nH]c2-c2cc(C(C)C)c(O)cc2O)on1` [Compound I-29, 5-(5-(2,4-Dihydroxy-5-isopropylphenyl)-3-(ethylcarbamoyl)-1H-pyrazol-4-yl)-N-ethylisoxazole-3-carboxamide]?
Answer: IC50 (yeast HSP90): > 1000 nM; IC50 [1]: > 1000 nM

Question: Which results are given for `CCNC(=O)c1noc(-c2cc(C(C)C)c(O)cc2O)c1-c1cc(CN)no1` [Compound I-30, 3′-(Aminomethyl)-5-(2,4-dihydroxy-5-isopropylphenyl)-N-ethyl-4,5′-biisoxazole-3-carboxamide]?
Answer: IC50 (yeast HSP90): 500 to 1000 nM; IC50 [1]: < 500 nM

Question: What does the source list for `CCNC(=O)c1noc(-c2cc(C(C)C)c(O)cc2O)c1-c1cc(CNC(C)=O)no1` [Compound I-31, 3′-(Acetamidomethyl)-5-(2,4-dihydroxy-5-isopropylphenyl)-N-ethyl-4,5′-biisoxazole-3-carboxamide]?
Answer: IC50 (yeast HSP90): 500 to 1000 nM; IC50 [1]: < 500 nM

Question: What does the source list for `CCNC(=O)c1noc(-c2cc(C(C)C)c(O)cc2O)c1-c1cc(COS(C)(=O)=O)no1` [Compound I-32, (5-(2,4-Dihydroxy-5-isopropylphenyl)-3-(ethylcarbamoyl)-4,5′-biisoxazol-3′-yl)methyl methanesulfonate]?
Answer: IC50 (yeast HSP90): < 500 nM; IC50 [1]: < 500 nM

Question: For `CCNC(=O)c1noc(-c2cc(C(C)C)c(O)cc2O)c1-c1cc(COCC(=O)O)no1` [Compound I-33, 2-((5-(2,4-Dihydroxy-5-isopropylphenyl)-3-(ethylcarbamoyl)-4,5′-biisoxazol-3′-yl)methoxy)acetic acid], which IC50 (yeast HSP90) is on record?
Answer: > 1000 nM

Question: What about the IC50 [1] of the same compound?
Answer: > 1000 nM

Question: With `CCNC(=O)c1noc(-c2cc(C(C)C)c(O)cc2O)c1-c1cc(CNC(=O)CC)no1` [Compound I-34, 5-(2,4-Dihydroxy-5-isopropylphenyl)-N-ethyl-3′-(propionamidomethyl)-4,5′-biisoxazole-3-carboxamide] as the compound, how does the IC50 (yeast HSP90) read?
Answer: < 500 nM

Question: And the IC50 [1]?
Answer: < 500 nM

Question: For `CCNC(=O)c1noc(-c2cc(C(C)C)c(O)cc2O)c1-c1cc(CC#N)no1` [Compound I-35, 3′-(Cyanomethyl)-5-(2,4-dihydroxy-5-isopropylphenyl)-N-ethyl-4,5′-biisoxazole-3-carboxamide], which IC50 (yeast HSP90) is on record?
Answer: < 500 nM

Question: And the IC50 [1]?
Answer: < 500 nM

Question: `CCNC(=O)c1noc(-c2cc(C(C)C)c(O)cc2O)c1-c1cc(COCC(N)=O)no1` [Compound I-36, 3′-((2-Amino-2-oxoethoxy)methyl)-5-(2,4-dihydroxy-5-isopropylphenyl)-N-ethyl-4,5′-biisoxazole-3-carboxamide] was tested. Which IC50 (yeast HSP90) did it give?
Answer: < 500 nM

Question: What about the IC50 [1] of the same compound?
Answer: < 500 nM

Question: Which results are given for `CCNC(=O)c1noc(-c2cc(C(C)C)c(O)cc2O)c1-c1cc(C)no1` [Compound I-37, 5-(2,4-Dihydroxy-5-isopropylphenyl)-N-ethyl-3′-methyl-4,5′-biisoxazole-3-carboxamide]?
Answer: IC50 (yeast HSP90): < 500 nM; IC50 [1]: < 500 nM

Question: How did the IC50 (yeast HSP90) turn out when `CCNC(=O)c1noc(-c2cc(C(C)C)c(O)cc2O)c1-c1cc(CN2CCCCC2)no1` [Compound I-38, 5-(2,4-Dihydroxy-5-isopropylphenyl)-N-ethyl-3′-(piperidin-1-ylmethyl)-4,5′-biisoxazole-3-carboxamide] was run?
Answer: 500 to 1000 nM

Question: And the IC50 [1]?
Answer: < 500 nM
